Data on two substances can be found in patent US20100160219A1, “Novel Polypeptides Inducing Dendritic Cell Migration, as Well as Medicines and Pharmaceutical Compositions Containing Same” (priority 2006, published 2010).

For assay [1], the system named is Langerhans cells and dendritic cells. The assay can be described thus: In vivo migration-inducing assay in mice (ear application, auricular lymph nodes). The settings on record: mouse, 5 μl of 25 mg/ml in DMSO on left ear, 24 hours. The protocol: The peptide of SEQ ID NO.16 was also tested in vivo in mice in a migration-inducing assay. In order to do this, a population of mice was used in which the EGFP gene is introduced in front of the gene for Langerin, which makes Langerhans cells naturally fluorescent. The gene encoding CCR6 is also disrupted in these mice but normal numbers of Langerhans cells are present in the epidermis. These mice are obtained by crossing two murine strains: the Langerin DTR EGFP line (Kissenpfennig A, et al. in Trends Immunol. 2006 March; 27(3):132-9. Immunity. 2005 May; 22(5):643-54) maintained at the CNRS centre for distribution, typing and archiving at Orleans, France, and subsequently available from the European Mouse Mutant Archive (EMMA, GSF National Research Centre for Environment and Health, Institute of Experimental Genetics, Ingolstädter Landstrasse 1, D-85764 Neuherberg, Munich, Germany, www.emmanet.org) under the identification number EM:01822, and the CCR6 knockout line, published by Cook et al. in Immunity, 2000, 12: 495-503 and by Lukrs et al. in J. Exp. Med., 2001, 194, 551-555.
The peptide of SEQ ID NO.16 is prepared in DMSO at a concentration of 25 mg/ml. […] The number of (naturally fluorescent) Langerhans cells is counted and the total number of dendritic cells identified by labelling with an anti-CD11c antibody.

The subject of the next assay is dendritic cells. The assay can be described thus: In vitro assay of dendritic cell migration. As to conditions: cells incubated 24 hours with the fraction or polypeptide, then migration towards MIP-3β; ESAs at final dilution 1:20; index relative to untreated control. The format is cell-based.

In the case of “DTGSGGDDSEGAWGGEQQQVQQHGQSEDR (Amino acids 30-58 of the sequence of GRA5 protein from PRU strain of toxoplasma gondii) [SEQ ID NO.16, fragment corresponding to amino acids 30 to 58 of the GRA5-PRU protein, prepared by peptide synthesis]”, in assay [1], the “number of dendritic cells (CD11c) and Langerhans cells in auricular lymph nodes, treated side vs DMSO side” value is on record as “induces the migration of these cells in vivo”.

As to “glutathione S-transferase [GST, reference compound]”, the “migration of dendritic cells (migration-inducing activity, migration index)” value with dendritic cells is “no activity”.
